Measurements: PubChem BioAssay (NCI)
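Cells were grown in 96-well plates and exposed to each compound for 48 hours at five concentrations; endpoints were interpolated linearly between bracketing concentrations, or set to the highest concentration if not reached. TGI: concentration producing complete growth inhibition.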

What was measured:
Assay in all cases: NCI anticancer screen, dose series, 48 h
[1] = tested on: 786-0 renal
[2] = tested on: A498 renal
[3] = tested on: ACHN renal
[4] = tested on: CAKI-1 renal
[5] = tested on: CCRF-CEM leukemia
[6] = tested on: DU-145 prostate
[7] = tested on: EKVX NSCLC
[8] = tested on: HCT-116 colon
[9] = tested on: HCT-15 colon
[10] = tested on: HL-60(TB) leukemia
[11] = tested on: HOP-62 NSCLC
[12] = tested on: HS 578T breast
[13] = tested on: HT29 colon
[14] = tested on: IGROV1 ovarian
[15] = tested on: K-562 leukemia
[16] = tested on: KM12 colon
[17] = tested on: LOX IMVI melanoma
[18] = tested on: M14 melanoma
[19] = tested on: MCF7 breast
[20] = tested on: MDA-MB-435
[21] = tested on: MDA-N
[22] = tested on: MOLT-4 leukemia
[23] = tested on: NCI-H226 lung
[24] = tested on: NCI-H23 lung
[25] = tested on: NCI-H460 lung
[26] = tested on: NCI-H522 lung
[27] = tested on: NCI/ADR-RES ovarian
[28] = tested on: OVCAR-3 ovarian
[29] = tested on: OVCAR-4 ovarian
[30] = tested on: OVCAR-5 ovarian
[31] = tested on: OVCAR-8 ovarian
[32] = tested on: RPMI-8226 leukemia
[33] = tested on: RXF 393 renal
[34] = tested on: SF-268 CNS
[35] = tested on: SF-295 CNS
[36] = tested on: SF-539 CNS
[37] = tested on: SK-MEL-28 melanoma
[38] = tested on: SK-MEL-5 melanoma
[39] = tested on: SK-OV-3 ovarian
[40] = tested on: SR leukemia
[41] = tested on: SW-620 colon
[42] = tested on: T-47D breast
[43] = tested on: TK-10 renal
[44] = tested on: UACC-257 melanoma
[45] = tested on: UO-31 renal
[46] = tested on: A549 NSCLC
[47] = tested on: COLO 205 colon
[48] = tested on: HCC-2998 colon
[49] = tested on: HOP-92 NSCLC
[50] = tested on: MALME-3M melanoma
[51] = tested on: MDA-MB-231 breast
[52] = tested on: PC-3 prostate
[53] = tested on: SN12C renal
[54] = tested on: SNB-19 CNS
[55] = tested on: SNB-75 CNS
[56] = tested on: UACC-62 melanoma

CC1=NN(c2cccc(Cl)c2)C(=N/c2nc3ccccc3s2)/C1=C\C=C\c1ccccc1
TGI [1]: > 100 µM | TGI [2]: 75.5 µM | TGI [3]: 88.2 µM | TGI [4]: > 100 µM | TGI [5]: > 100 µM | TGI [6]: > 100 µM | TGI [7]: > 100 µM | TGI [8]: > 100 µM | TGI [9]: > 100 µM | TGI [10]: 92.8 µM | TGI [11]: > 100 µM | TGI [12]: 87.6 µM | TGI [13]: > 100 µM | TGI [14]: 82.8 µM | TGI [15]: > 100 µM | TGI [16]: > 100 µM | TGI [17]: > 100 µM | TGI [18]: > 100 µM | TGI [19]: > 100 µM | TGI [20]: > 100 µM | TGI [21]: > 100 µM | TGI [22]: 3.48 µM | TGI [23]: > 100 µM | TGI [24]: > 100 µM | TGI [25]: > 100 µM | TGI [26]: 92.3 µM | TGI [27]: > 100 µM | TGI [28]: 78.9 µM | TGI [29]: > 100 µM | TGI [30]: > 100 µM | TGI [31]: > 100 µM | TGI [32]: 81.2 µM | TGI [33]: > 100 µM | TGI [34]: > 100 µM | TGI [35]: > 100 µM | TGI [36]: > 100 µM | TGI [37]: > 100 µM | TGI [38]: 59.2 µM | TGI [39]: > 100 µM | TGI [40]: 25.9 µM | TGI [41]: > 100 µM | TGI [42]: > 100 µM | TGI [43]: > 100 µM | TGI [44]: > 100 µM | TGI [45]: > 100 µM

C/C(=C/CNc1ncnc2c1ncn2CCC(=O)O)CO
TGI [1]: > 100 µM | TGI [2]: > 100 µM | TGI [46]: > 100 µM | TGI [3]: > 100 µM | TGI [4]: > 100 µM | TGI [5]: > 100 µM | TGI [47]: > 100 µM | TGI [6]: > 100 µM | TGI [7]: > 100 µM | TGI [48]: > 100 µM | TGI [8]: > 100 µM | TGI [10]: > 100 µM | TGI [11]: > 100 µM | TGI [49]: > 100 µM | TGI [12]: > 100 µM | TGI [13]: > 100 µM | TGI [14]: > 100 µM | TGI [15]: > 100 µM | TGI [16]: > 100 µM | TGI [17]: > 100 µM | TGI [18]: > 100 µM | TGI [50]: > 100 µM | TGI [19]: > 100 µM | TGI [51]: > 100 µM | TGI [20]: > 100 µM | TGI [21]: > 100 µM | TGI [22]: > 100 µM | TGI [23]: > 100 µM | TGI [24]: > 100 µM | TGI [25]: > 100 µM | TGI [26]: > 100 µM | TGI [27]: > 100 µM | TGI [28]: > 100 µM | TGI [29]: > 100 µM | TGI [30]: > 100 µM | TGI [31]: > 100 µM | TGI [52]: > 100 µM | TGI [32]: > 100 µM | TGI [33]: > 100 µM | TGI [34]: > 100 µM | TGI [35]: > 100 µM | TGI [36]: > 100 µM | TGI [37]: > 100 µM | TGI [38]: > 100 µM | TGI [39]: > 100 µM | TGI [53]: > 100 µM | TGI [54]: > 100 µM | TGI [55]: > 100 µM | TGI [40]: > 100 µM | TGI [41]: > 100 µM | TGI [42]: > 100 µM | TGI [43]: > 100 µM | TGI [44]: > 100 µM | TGI [56]: > 100 µM | TGI [45]: > 100 µM
